Source: patent US8987338B2, “Active ingredient of a medicinal agent, a medicinal agent, a pharmaceutical composition and method for treating dementia syndrome patients” (priority 2007, dated 2015)

Assays:
[1] = test system: patients with Parkinson's syndrome; experiment: Clinical trial: unified scale for evaluation of Parkinsonism; type: in vivo, human; conditions: 3 months of treatment
Experimental: The efficacy of the treatment of Alzheimer-type dementias with marked intellectual-mnestic memory loss with polyprenols of formula (1) and a comparison of the efficacy of Ropren and Gliatilin was studied in patients during a 3-month course of treatment. Treatment efficacy on various functions before and after the treatment was assessed using the international scale MMSE ((evaluation of mental status—Mini-Mental State Examination, MMSE) Folstcin et al, 1975), “list with symptoms” questionnaire, unified scale for evaluation of Parkinsonism, EEG data, and biochemical parameters of the blood.
After treatment with Ropren, the Parkinson's syndrome decreased (on average by 5 points) in almost all patients, i.e., in 23 out of 25 patients or in 92%. This positive effect was found as early as 1 month after commencement of Ropren therapy. In the case of Gliatilin, improvement of Parkinson's syndrome was less pronounced (on average by 3 points) using the Parkinsonism rating scale.

[2] = test system: patients with vascular dementia of the Alzheimer's type; experiment: Clinical trial: electroencephalography (EEG) before and after therapy; type: in vivo, human; conditions: before vs after treatment (about 3 months), individual patients or group
Experimental: MMSE scale (parameter of evaluation of intellectually-mnestic functions of a patient before and after treatment) was used for the evaluation of intellect. […] Electroencephalography (EEG) was performed in 12 patients (48%) before and after the Ropren therapy.

C[N+](C)(C)CCOP(=O)([O-])OC[C@H](O)CO [Gliatilin, choline alfoscerate]
average decrease of Parkinson's syndrome on Parkinsonism rating scale [1]: 3 points | Changes in EEG [2]: No changes
